Columns and labels:
hCES1b = target: T1, hCES1b (Homo sapiens, UniProt P23141); assay: Esterases activity screening, hCES1b; assay type: in vitro ADME; set-up: key: +, detected; –: −, not detected; details: 100 μM 4F-MDMB-BINACA, 0.2 mg protein/ml, duplicate
T1 construct: purchased Corning
T1 sequence (P23141 18-567): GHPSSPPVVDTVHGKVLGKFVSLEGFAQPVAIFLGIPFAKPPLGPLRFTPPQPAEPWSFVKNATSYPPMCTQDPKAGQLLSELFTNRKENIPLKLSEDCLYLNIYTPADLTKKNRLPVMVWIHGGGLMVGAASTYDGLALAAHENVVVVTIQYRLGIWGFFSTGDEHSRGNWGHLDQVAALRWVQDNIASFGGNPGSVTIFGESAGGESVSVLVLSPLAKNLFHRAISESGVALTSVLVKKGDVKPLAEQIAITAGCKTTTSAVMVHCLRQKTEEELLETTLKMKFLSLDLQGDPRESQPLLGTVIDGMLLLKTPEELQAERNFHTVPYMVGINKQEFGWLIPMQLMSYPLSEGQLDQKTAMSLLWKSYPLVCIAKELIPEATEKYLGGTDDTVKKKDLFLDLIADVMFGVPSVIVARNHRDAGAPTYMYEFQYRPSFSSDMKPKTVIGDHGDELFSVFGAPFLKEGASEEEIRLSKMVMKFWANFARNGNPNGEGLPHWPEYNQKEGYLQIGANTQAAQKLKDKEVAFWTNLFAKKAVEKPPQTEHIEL
Method: Experiments were performed in accordance with a previous study (Meyer et al., [2015]) with minor modifications. The final volume per reaction tube was 100 μl with a final 4F-MDMB-BINACA concentration of 100 μM and enzyme concentration of 0.2 mg protein/ml for hCES1b, hCES1c, and hCES2. Incubations with pHLM and pHLS9 (0.2 mg protein/ml, each) were performed in a similar manner. Additionally, incubations with human plasma (50 μl pooled human plasma, 40 μl phosphate buffer, and 10 μl substrate) were performed. The reactions were started by adding the enzyme-containing preparation and terminated with an equal volume of ice-cold acetonitrile containing diazepam-d5 (100 μM) as an internal standard. Only plasma incubations were terminated by addition of a three-fold volume of ice-cold acetonitrile. The reaction mixtures were centrifuged at 18,407 × g for 15 min, and then supernatants were transferred to autosampler vials, and 5 μl was injected onto the LC-HRMS/MS system. Negative control incubations without enzyme were prepared to identify non-metabolically formed compounds. All incubations were done in duplicate.

monooxygenases = assay: Monooxygenases activity screening, summary over isozymes; assay type: in vitro ADME, human; details: single-enzyme incubations, 25 μM
Method: According to an established protocol (Wagmann et al., [2016]), the final volume per reaction tube was 50 μl with a final 4F-MDMB-BINACA concentration of 25 μM and enzyme concentrations of 50 pmol/ml for CYP1A2, CYP2A6, CYP2B6, CYP2C8, CYP2C9, CYP2C19, CYP2D6, CYP2E1, CYP3A4, and CYP3A5, respectively, or 0.25 mg protein/ml for FMO3. Furthermore, the reaction mixture contained 90 mM phosphate buffer (pH 7.4), superoxide dismutase (200 U/ml), isocitrate (5 mM), MgCl2 (5 mM), isocitrate dehydrogenase (0.5 U/ml), and NADP^+ (1.2 mM). The phosphate buffer was replaced with Tris buffer (90 mM) for incubations with CYP2A6 and CYP2C9 according to the manufacturer's recommendation. All incubations were performed at 37°C for 30 min and terminated by adding 50 μl of ice-cold acetonitrile. Afterwards, the mixtures were centrifuged at 18,407 × g for 5 min, 70 μl of the supernatants was transferred into autosampler vials, and 1 μl was injected onto the LC-HRMS/MS system. Positive control incubations were performed with pHLM (1 mg microsomal protein/ml), and negative controls without enzyme were prepared to identify non-metabolically formed compounds. All incubations were done in duplicate.

[1] = [2019], cited from earlier work
[2] = pHLM without co-substrates of phase II reactions; ref Haschimi et al., [2019]; cited from earlier work

SMILES	Detection of metabolite in incubation with hCES1b (hCES1b)	Monooxygenases involved in the metabolic phase I reactions (monooxygenases)	Number of metabolites identified in human urine samples ([1]; 17 human urine samples, conjugate cleavage, ref Haschimi et al.)	Number of metabolites identified in blood and urine samples ([1]; four blood and four urine samples, ref Krotulski et al.)	Number of phase I metabolites identified in pHLM incubations [2]
CC(C)(C)C(NC(=O)c1nn(CCCCF)c2ccccc12)C(=O)O (centres unmarked) [MB8]	+	–	–	–	–
COC(=O)C(NC(=O)c1nn(CCCCF)c2ccccc12)C(C)(C)C (centres unmarked) [4F-MDMB-BINACA, methyl 2-[1-(4-fluorobutyl)-1H-indazole-3-carbonyl]amino-3,3-dimethylbutanoate]	–	CYP1A2, CYP2C8, CYP2C19, CYP3A4, and CYP3A5	13	nine	11
